Data published in patent publication US20260021064A1, “ACETAMINOPHEN AND NAPROXEN FOR TREATING PAIN” (Kenvue Brands LLC, priority 2022, published 2026).
Read-outs that look alike come from different tables or passages of the source.

Tests used:
[1] = tested on: pain after surgical extraction of four third molars; conditions: for PID Score, Least Squares Mean (Standard Error): PI-NRS 0-10, difference from baseline
Experimental: (§1) 1. Time-Weighted Sum of Pain Intensity Difference Score From Baseline (0 Hour) to 6 Hours (SPID 0-6) [Time Frame: Baseline (0 hour) up to 6 hours post-dose]. Time-weighted sum of the pain intensity difference (SPID) score was measured using a Pain Intensity-Numerical Rating Scale (PI-NRS) ranging from 0-10 (0=no pain, 10=very severe pain). The possible range of SPID for 0-6 hours was from −60 to 60. A higher value of SPID indicated greater pain relief. PID was the difference between baseline pain intensity and pain intensity at assessment. Time-weighted sum of the pain intensity difference scores were derived by first multiplying each PID score by the time from the previous time point and adding these time-weighted PID scores together over the intervals from 0 to 6 hours.
2. Time-weighted Sum of Pain Intensity Difference Score From Baseline (0 Hour) to 12 Hours (SPID 0-12) [Time Frame: Baseline (0 hour) up to 12 hours post-dose]. Time-weighted sum of the pain intensity difference score was measured using a PI-NRS ranging from 0-10 (0=no pain, 10=very severe pain). The possible range of SPID for 0-12 hours was from-120 to 120. A higher value of SPID indicated greater pain relief. PID was the difference between baseline pain intensity and pain intensity at assessment (12 hours). Time-weighted sum of the pain intensity difference scores were derived by first multiplying each PID score by the time from the previous time point and adding these time-weighted PID scores together over the intervals from 0 to 12 hours.
4. Time-Weighted Sum of Pain Intensity Difference Score From Baseline (0 Hour) to 8 Hours (SPID 0-8) [Time Frame: Baseline (0 hour) up to 8 hours post-dose]. Time-weighted sum of the pain intensity difference score was measured using a PI-NRS ranging from 0-10 (0=no pain, 10=very severe pain). The possible range of SPID for 0-8 hours was from −80 to 80. A higher value of SPID indicated greater pain relief. PID was the difference between baseline pain intensity and pain intensity at assessment (8 hours). Time-weighted sum of the pain intensity difference scores were derived by first multiplying each PID score by the time from the previous time point and adding these time-weighted PID scores together over the intervals from 0 to 8 hours.
6. Pain Intensity Difference (PID) Scores at Individual Time Points [Time Frame: 0.25 hours, 0.5 hours, 0.75 hours, 1 hours, 1.25 hours, 1.5 hours, 2 hours, 3 hours, 4 hours, 5 hours, 6 hours, 7 hours, 8 hours, 9 hours, 10 hours, 11 hours, and 12 hours]. Pain Intensity was self-reported over 12 hours, using a pain rating of 0-10 on the PI-NRS, with score ranged from 0-10 (0=no pain; 10 =worst imaginable pain). Pain intensity differences were calculated with respect to baseline at each time point after study drug administration.
as §1, with “Time-Weighted” for “1. Time-Weighted”, “0-6):” for “0-6) [Time Frame: Baseline (0 hour) up to 6 hours post-dose].”
Time-weighted Sum of Pain Intensity Difference Score From Baseline (0 Hour) to 12 Hours (SPID 0-12): Time-weighted sum of the pain intensity difference score was measured using a PI-NRS ranging from 0-10 (0=no pain, 10=very severe pain). The possible range of SPID for 0-12 hours was from-120 to 120. A higher value of SPID indicated greater pain relief. PID was the difference between baseline pain intensity and pain intensity at assessment (12 hours).

[2] = tested on: pain after surgical extraction of four third molars; conditions: for PAR Score, Least Squares Mean (Standard Error): PR-NRS 0-10
Experimental: (§2) 1. Time-Weighted Sum of Total Pain Relief Score From Baseline (0 Hour) to 6 Hours (TOTPAR 0-6) [Time Frame: Baseline (0 hour) up to 6 hours post-dose]. Time-weighted total pain relief (TOTPAR) was measured using a Pain Relief Numerical Rating Scale (PR-NRS) ranging from 0-10 (0=no relief, 10=complete relief). Total pain relief scores (TOTPARs) were calculated by multiplying the pain relief score at each postdose time point by the duration (in hours) since the preceding time point and then summing these values. The minimum value was 0, and the maximum value was 60. Higher scores was indicative of more pain relief.
as §2, with “2.” for “1.”, “8” for “6”, “0-8)” for “0-6)”, “TOTPAR” for “Time-weighted total pain relief (TOTPAR)”, “PR-NRS” for “Pain Relief Numerical Rating Scale (PR-NRS)”, “80.” for “60.”
as §2, with “3.” for “1.”, “12” for “6”, “0-12)” for “0-6)”, “TOTPAR” for “Time-weighted total pain relief (TOTPAR)”, “PR-NRS” for “Pain Relief Numerical Rating Scale (PR-NRS)”, “120.” for “60.”
5. Pain Relief (PAR) Scores at Individual Timepoints [Time Frame: 0.25 hours, 0.5 hours, 0.75 hours, 1 hours, 1.25 hours, 1.5 hours, 2 hours, 3 hours, 4 hours, 5 hours, 6 hours, 7 hours, 8 hours, 9 hours, 10 hours, 11 hours, and 12 hours]. Participants answered a question at individual time points: “how much relief do you have from your starting pain?” on a 11-point PR-NRS. Scale ranged from 0=no relief to 10=complete relief. Higher score indicated improvement in pain.
as §2, with “Time-Weighted” for “1. Time-Weighted”, “0-6):” for “0-6) [Time Frame: Baseline (0 hour) up to 6 hours post-dose].”
(§3) Time-Weighted Sum of Total Pain Relief Score From baseline (0 Hour) to 8 Hours (TOTPAR 0-8): TOTPAR was measured using a PR-NRS ranging from 0-10 (0=no relief, 10=complete relief). Total pain relief scores (TOTPARs) were calculated by multiplying the pain relief score at each postdose time point by the duration (in hours) since the preceding time point and then summing these values. The minimum value was 0, and the maximum value was 80. Higher scores was indicative of more pain relief.
as §3, with “Baseline” for “baseline”, “Hour” for “Hour)”, “12” for “8”, “0-12):” for “0-8):”, “120.” for “80.”
Pain Relief (PAR) Scores at Timepoints: Participants answered a question at individual time points: “how much relief do you have from your starting pain?” on a 11-point PR-NRS. Scale ranged from 0-no relief to 10-complete relief.

[3] = tested on: pain after surgical extraction of four third molars; conditions: single oral dose; up to 12 hours; scale poor (0) to excellent (4)
Experimental: Participant's Global Evaluation of Study Medication OR Overall Impression of Study Medication According to Participant's Global Evaluation [Time Frame: Up to 12 hours]. Participants were asked to rate their overall impression of the study medication using the following scale: poor (0), fair (1), good (2), very good (3), and excellent (4) where higher score represented better outcome.
Participant's Global Evaluation of Study Medication OR Overall Impression of Study Medication According to Participant's Global Evaluation: Participants were asked to rate their overall impression of the study medication using the following scale: poor (0), fair (1), good (2), very good (3), and excellent (4) where higher score represented better outcome

For `COc1ccc2cc([C@H](C)C(=O)O)ccc2c1` [Arm 2: Naproxen Sodium 440 mg, naproxen sodium], the “PID Score, Least Squares Mean (Standard Error)” value (“PID Score … (Standard Error)” for short) ([1]; 0.25 Hours post-dose) was 0.58 (0.15), the “PID Score … (Standard Error)” value ([1]; 0.5 Hours post-dose) was 1.82 (0.24) and the “PID Score … (Standard Error)” value ([1]; 0.75 Hours post-dose) was 3.15 (0.27). The “PID Score … (Standard Error)” value ([1]; 1 Hours post-dose) was 3.97 (0.28), the “PID Score … (Standard Error)” value ([1]; 1.25 Hours post-dose) was 4.50 (0.28) and the “PID Score … (Standard Error)” value ([1]; 1.5 Hours post-dose) was 4.72 (0.28). For the same compound, the “PID Score … (Standard Error)” value ([1]; 2 Hours post-dose) was 4.87 (0.28), the “PID Score … (Standard Error)” value ([1]; 3 Hours post-dose) was 4.75 (0.30) and the “PID Score … (Standard Error)” value ([1]; 4 Hours post-dose) was 4.63 (0.31). The “PID Score … (Standard Error)” value ([1]; 5 Hours post-dose) was 4.59 (0.32), the “PID Score … (Standard Error)” value ([1]; 6 Hours post-dose) was 4.50 (0.32) and the “PID Score … (Standard Error)” value ([1]; 7 Hours post-dose) was 4.36 (0.32). The “PID Score … (Standard Error)” value ([1]; 9 Hours post-dose) was 4.04 (0.33), the “PID Score … (Standard Error)” value ([1]; 10 Hours post-dose) was 4.01 (0.35) and the “PID Score … (Standard Error)” value ([1]; 11 Hours post-dose) was 3.99 (0.35). The “PID Score … (Standard Error)” value ([1]; 12 Hours post-dose) was 3.91 (0.36), the “Time-Weighted Sum of Pain Intensity Difference Score From Baseline (0 Hour) to 6 Hours (SPID 0-6), Least Squares Mean (Standard Error)” value ([1]; single oral dose, possible range -60 to 60, higher = greater pain relief) was 25.59 (1.562) and the “Time-Weighted Sum of Pain Intensity Difference Score From Baseline (0 Hour) to 8 Hours (SPID 0-8), Least Squares Mean (Standard Error)” value ([1]; single oral dose, possible range -80 to 80, higher = greater pain relief) was 34.11. For the same compound, the “Time-weighted Sum of Pain Intensity Difference Score From Baseline (0 Hour) to 12 Hours (SPID 0-12), Least Squares Mean (Standard Error)” value ([1]; single oral dose, possible range -120 to 120, higher = greater pain relief) was 50.07 (3.341), the “PAR Score, Least Squares Mean (Standard Error)” value (from here on “PAR Score … (Standard Error)”) ([2]; 0.25 Hours post-dose) was 0.80 (0.18) and the “PAR Score … (Standard Error)” value ([2]; 0.5 Hours post-dose) was 2.27 (0.31). The “PAR Score … (Standard Error)” value ([2]; 0.75 Hours post-dose) was 4.11 (0.35), the “PAR Score … (Standard Error)” value ([2]; 1 Hours post-dose) was 5.29 (0.35) and the “PAR Score … (Standard Error)” value ([2]; 1.25 Hours post-dose) was 5.99 (0.35). The “PAR Score … (Standard Error)” value ([2]; 1.5 Hours post-dose) was 6.36 (0.34), the “PAR Score … (Standard Error)” value ([2]; 2 Hours post-dose) was 6.62 (0.34) and the “PAR Score … (Standard Error)” value ([2]; 3 Hours post-dose) was 6.52 (0.35). The “PAR Score … (Standard Error)” value ([2]; 4 Hours post-dose) was 1.46 (0.36), the “PAR Score … (Standard Error)” value ([2]; 5 Hours post-dose) was 6.45 (0.37) and the “PAR Score … (Standard Error)” value ([2]; 6 Hours post-dose) was 6.26 (0.38). The “PAR Score … (Standard Error)” value ([2]; 8 Hours post-dose) was 5.95 (0.39), the “PAR Score … (Standard Error)” value ([2]; 9 Hours post-dose) was 5.73 (0.40) and the “PAR Score … (Standard Error)” value ([2]; 10 Hours post-dose) was 5.71 (0.42). For the same compound, the “PAR Score … (Standard Error)” value ([2]; 11 Hours post-dose) was 5.71 (0.43), the “PAR Score … (Standard Error)” value ([2]; 12 Hours post-dose) was 5.62 (0.44) and the “Time-Weighted Sum of Total Pain Relief Score From Baseline (0 Hour) to 6 Hours (TOTPAR 0-6), Least Squares Mean (Standard Error)” value ([2]; single oral dose, range 0 to 60, higher = more pain relief) was 35.20 (1.848). The “Time-Weighted Sum of Total Pain Relief Score From baseline (0 Hour) to 8 Hours (TOTPAR 0-8), Least Squares Mean (Standard Error)” value ([2]; single oral dose, range 0 to 80, higher = more pain relief) was 47.19, the “Time-Weighted Sum of Total Pain Relief Score From Baseline (0 Hour to 12 Hours (TOTPAR 0-12), Least Squares Mean (Standard Error))” value ([2]; single oral dose, range 0 to 120, higher = more pain relief) was 69.96 and the “Participant's Global Evaluation of Study Medication, Least Squares Mean (Standard Error)” value [3] was 2.7 (0.13).
